In ChEMBL document CHEMBL1909046, “DrugMatrix in vitro pharmacology data”:

Experiments:
[1] = biological target: T1, Muscarinic acetylcholine receptor M4 (Homo sapiens, UniProt P08173); format: cell membranes, CHO-K1, Membrane; details: cho-k1; also: in other assays of this panel Not Active means under 50% inhibition at 10 µM
T1 sequence (P08173 whole entry): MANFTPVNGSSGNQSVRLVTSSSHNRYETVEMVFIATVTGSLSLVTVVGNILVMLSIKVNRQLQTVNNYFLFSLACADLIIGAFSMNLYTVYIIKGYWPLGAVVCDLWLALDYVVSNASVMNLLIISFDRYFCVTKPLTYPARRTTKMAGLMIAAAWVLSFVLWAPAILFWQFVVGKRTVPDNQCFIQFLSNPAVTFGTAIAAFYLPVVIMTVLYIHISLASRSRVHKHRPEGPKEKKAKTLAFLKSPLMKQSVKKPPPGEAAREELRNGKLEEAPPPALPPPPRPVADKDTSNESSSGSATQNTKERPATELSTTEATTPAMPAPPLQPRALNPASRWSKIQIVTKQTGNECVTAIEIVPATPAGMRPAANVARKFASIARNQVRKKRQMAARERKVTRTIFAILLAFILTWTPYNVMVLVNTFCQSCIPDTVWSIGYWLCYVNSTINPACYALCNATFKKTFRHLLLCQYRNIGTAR

[2] = biological target: Tyrosine-protein kinase Lck (Homo sapiens, UniProt P06239); experiment: DRUGMATRIX: Protein Tyrosine Kinase, LCK enzyme inhibition (substrate: Poly(Glu:Tyr)); format: cell-based, Insect cells; details: insect cells; Not Active = under 50% inhibition at 10 µM
Tyrosine-protein kinase Lck, sequence (P06239 whole entry): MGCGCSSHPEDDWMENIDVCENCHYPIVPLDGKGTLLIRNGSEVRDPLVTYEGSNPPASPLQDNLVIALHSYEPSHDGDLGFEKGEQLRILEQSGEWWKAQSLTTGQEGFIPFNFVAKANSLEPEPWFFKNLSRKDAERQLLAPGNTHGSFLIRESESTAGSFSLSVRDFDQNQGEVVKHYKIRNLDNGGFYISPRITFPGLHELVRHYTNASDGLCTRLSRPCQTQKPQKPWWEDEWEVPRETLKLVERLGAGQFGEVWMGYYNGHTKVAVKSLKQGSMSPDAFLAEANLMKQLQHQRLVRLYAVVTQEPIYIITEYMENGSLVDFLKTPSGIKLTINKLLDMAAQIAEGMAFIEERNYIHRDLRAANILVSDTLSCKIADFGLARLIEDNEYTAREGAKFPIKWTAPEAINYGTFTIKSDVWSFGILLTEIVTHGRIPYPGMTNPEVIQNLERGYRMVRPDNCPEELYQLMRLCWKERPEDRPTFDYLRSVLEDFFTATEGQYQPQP

[3] = DRUGMATRIX: Calcium Channel Type L, Benzothiazepine radioligand binding (ligand: [3H] Diltiazem); format: cell membranes, Rattus norvegicus, Wistar, Brain, Membrane; details: Not Active = under 50% inhibition at 10 µM
[4] = biological target: Sigma non-opioid intracellular receptor 1 (Homo sapiens, UniProt Q99720); experiment: DRUGMATRIX: Sigma1 radioligand binding (ligand: [3H] Haloperidol); format: cell membranes, Jurkat, Membrane; details: Not Active = under 50% inhibition at 10 µM
Sigma non-opioid intracellular receptor 1, sequence (Q99720 whole entry): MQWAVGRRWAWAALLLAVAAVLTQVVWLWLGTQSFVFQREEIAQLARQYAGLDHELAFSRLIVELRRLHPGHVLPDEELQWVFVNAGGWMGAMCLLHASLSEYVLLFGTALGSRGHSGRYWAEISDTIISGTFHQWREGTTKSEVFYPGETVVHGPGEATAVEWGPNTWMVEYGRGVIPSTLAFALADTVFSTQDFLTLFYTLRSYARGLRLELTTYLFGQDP

[5] = DRUGMATRIX: Sodium/nucleoside co-transporter radioligand binding (ligand: nitrobenzylthioinosine); format: cell membranes, Cavia porcellus, Dunkin-Hartley, Cerebral cortex, Membrane; details: Not Active = under 50% inhibition at 10 µM

Compound	IC50 [1]	IC50 [2]	IC50 [3]	Ki [3]	IC50 ([4]; jurkat)	IC50 [5]	Ki [5]	IC50 ([3]; read-out: IC50)	Ki ([3]; read-out: Ki)	IC50 ([4]; read-out: IC50)	Ki ([4]; read-out: Ki)	Ki [1]	Ki [2]	Ki ([4]; jurkat)
CC[C@H](C)C(=O)O[C@H]1CCC=C2C=C[C@H](C)[C@H](CC[C@@H]3C[C@@H](O)CC(=O)O3)[C@H]21 [MEVASTATIN]	Not Active	Not Active	Not Active	Not Active	Not Active	Not Active	Not Active							
CC(=O)O[C@]1(C(C)=O)CC[C@H]2[C@@H]3C[C@H](C)C4=CC(=O)CC[C@]4(C)[C@H]3CC[C@@]21C [MEDROXYPROGESTERONE ACETATE]	Not Active	Not Active	Not Active	Not Active	Not Active	Not Active	Not Active							
CC[C@@]1(O)C(=O)OCc2c1cc1n(c2=O)Cc2cc3c(CN(C)C)c(O)ccc3nc2-1 [TOPOTECAN]	Not Active	Not Active	Not Active	Not Active	Not Active	Not Active	Not Active							
CC#C[C@]1(O)CC[C@H]2[C@@H]3CCC4=CC(=O)CCC4=C3[C@@H](c3ccc(N(C)C)cc3)C[C@@]21C [MIFEPRISTONE]	Not Active	Not Active				Not Active	Not Active	29 µM	25.8 µM	26.3 µM	11 µM			
Cc1cnc(NC(=O)C2=C(O)c3ccccc3S(=O)(=O)N2C)s1 [MELOXICAM]	Not Active	Not Active	Not Active	Not Active	Not Active	Not Active	Not Active							
O=[As][O-].[Na+] [SODIUM ARSENITE]	Not Active	Not Active	Not Active	Not Active	Not Active	Not Active	Not Active							
Cc1cccc(C)c1NC(=O)C(C)N (stereo unspecified) [TOCAINIDE]	Not Active	Not Active	Not Active	Not Active	Not Active	Not Active	Not Active							
COC(=O)Nc1nc2ccc(C(=O)c3ccccc3)cc2[nH]1 [MEBENDAZOLE]	Not Active	Not Active	Not Active	Not Active	Not Active	Not Active	Not Active							
CCOC(=O)C1=C(C)NC(C)=C(C(=O)OCC)C1c1ccccc1/C=C/C(=O)OC(C)(C)C [LACIDIPINE]	Not Active	Not Active			Not Active	Not Active	Not Active	0.00545 µM	0.00484 µM					
CC[C@H](C)[C@@H](CO[C@@H](Cc1ccccc1)C(=O)N[C@@H](CCS(C)(=O)=O)C(=O)OC(C)C)NC[C@@H](N)CS	Not Active	Not Active			Not Active	Not Active	Not Active	3.57 µM	3.17 µM					
O=C(c1ccccc1)c1ccc2n1CCC2C(=O)O (stereo unspecified) [KETOROLAC]	Not Active	Not Active	Not Active	Not Active	Not Active	Not Active	Not Active							
O=C(O)c1cc(/N=N/c2ccc(S(=O)(=O)Nc3ccccn3)cc2)ccc1O [SULFASALAZINE]	Not Active	Not Active	Not Active	Not Active	Not Active	Not Active	Not Active							
CC1(C)[C@H](C(=O)O)N2C(=O)C[C@H]2S1(=O)=O [SULBACTAM]	Not Active	Not Active	Not Active	Not Active	Not Active	Not Active	Not Active							
C1CCN2C[C@@H]3C[C@@H](CN4CCCC[C@@H]34)[C@H]2C1 [SPARTEINE]	Not Active	Not Active	Not Active	Not Active	Not Active	Not Active	Not Active							
LEAD(IV) ACETATE	Not Active	Not Active	Not Active	Not Active	Not Active	Not Active	Not Active					Not Active	Not Active	Not Active
CC(O)C(=O)O (stereo unspecified) [LACTIC ACID]	Not Active	Not Active	Not Active	Not Active	Not Active	Not Active	Not Active							
